These results are taken from patent publication EP2262764B1, “NOVEL N-BENZYLAMIDE SUBSTITUTED DERIVATIVES OF 2-(ACYLAMIDO)ACETIC ACID AND 2-(ACYLAMIDO)PROPIONIC ACIDS: POTENT NEUROLOGICAL AGENTS” (The University of North Carolina At Chapel Hill, priority 2008, dated 2009).

Structures are written as SMILES. Like-named read-outs stand apart in the source and are kept apart here.

In series [1] the test system is maximal electroshock (MES)-induced seizures. The series is described as follows: maximal electroshock seizure (MES) test, mice ip. To be noted: for ED50: Mus musculus, ip. The text has this:
The structure-activity relationship of functionalized amino acids (1).
(Protection in the maximal electroshock model is a classic sign of anticonvulsant action.)

Series [2] has as its system neurologic toxicity. The series is described as follows: neurologic toxicity (Tox), rotorod test, mice ip. The settings on record: for TD50: mouse, in vivo, ip, Tox, TD50, Mice (ip). On the technique in general: Falling from the rotarod earlier than controls is read as motor impairment.
In series [3] the test system is maximal electroshock (MES)-induced seizures. The series is described as follows: maximal electroshock seizure (MES) test, rat po. The settings on record: for ED50: Rattus norvegicus, po; for PI / MES, ED50: Rat (po); for PI: PI = TD50/ED50.
Series [4] is described as follows: neurologic toxicity (Tox), rat po. Type of series: in vivo. The settings on record: in vivo, time in hours in brackets.
A short description of series [5]: neurologic toxicity (Tox), rotorod test, mice ip. To be noted: mouse, in vivo, ip, Tox, TD50, Mice (ip); time in hours in second brackets; [x; y] = between doses x and y.
In series [6] the test system is neurologic toxicity. The series is described as follows: neurologic toxicity (Tox), rat po. To be noted: for TD50: in vivo. It is filed as in vivo.
The test system of series [7] is bi-phasic licking response. Kind of series: formalin test (0.5% formalin into hind paw, bi-phasic licking response). To be noted: dose 16.0 (CH2C≡CH/H), 8.0 (CH3/N3), 20.0 (CH2C≡CH/N3) mg/kg. It is filed as in vivo, mouse. As to the method:
Compounds of the present invention were active in treating pain in a formalin test carried out in accordance with standard techniques, as described in S. Hunskaar et al., J. Neurosci. Methods 14: 69-76 (1985). Briefly, 0.5% formalin is injected into the mouse hind paw to elicit a bi-phasic licking response, where the first acute phase is thought to correspond to the direct stimulation of peripheral fibers and the second (inflammatory) phase is caused by the release of inflammatory mediators.

Series [8] has as its system 6 Hz seizure model. The series is described as follows: 6 Hz seizure model, mice ip.
The test system of series [9] is maximal electroshock (MES)-induced seizures. The settings on record: rat, in vivo, po.
The mark [10] stands for this setting: read-out: MES, ED50, Mice (ip), time in hours in second brackets, [x, y] = between doses x and y.
Setting [11] is: time in hours in second brackets, [x, y] = between doses x and y.
The mark [12] stands for this setting: read-out: MES, ED50, Rat (po), time in hours in brackets.
[13] abbreviates: read-out: MES, ED50, Rat (po), time of peak effect in hours in brackets in the cell.
Setting [14] is: read-out: MES, ED50, Mice (ip), time of peak effect in hours in brackets in the cell.
The mark [15] stands for this setting: read-out: MES ED50, values of the running text, mice (ip).
Setting [16] is: read-out: MES, ED50, mice, intraperitoneally (ip), 95% confidence intervals in parentheses.
Setting [17] is: Mice (ip), time in hours in second brackets, [x, y] = between doses x and y.
The mark [18] stands for this setting: time in hours in brackets in the cell.
[19] abbreviates: rotorod test, time of peak effect in hours in brackets in the cell.

As a reminder, the ED50 is the midpoint of the dose-response relation. For orientation: TD50 means the dose at which the toxic effect under study appears in half of the subjects.

Take `COC[C@H](NC(C)=O)C(=O)NCc1ccc(OCc2cccc(F)c2)cc1` [(S)-3, (S)-2-Acetamido-N-(4-(3-fluorobenzyloxy)benzyl)-3-methoxypropanamide]: the ED50 in series [1] (setting [10]) was above 300 mg/kg. The compound also showed a TD50 in series [2] (setting [11]) above 300 mg/kg.
Take `C#CCOC[C@@H](NC(C)=O)C(=O)NCc1ccccc1` [(R)-7]: the ED50 was 16 mg/kg in series [3] (setting [12]), 8 mg/kg in series [3] (setting [13]), 10 to 30 mg/kg in series [1] (setting [10]) and 16 mg/kg in series [1] (setting [14]). For the same compound, the values for the TD50 in series [4] and in series [5] were above 500 mg/kg and 30 to 100 mg/kg, respectively.
For the compound `CC(=O)NC(C(=O)NCc1ccccc1)c1ccccc1` (racemic) [(R,S)-6], the ED50 in series [1] (read-out: MES ED50) is 32 mg/kg; in [1] (read-out: MES, ED50), 32 mg/kg.
With `COC[C@@H](NC(C)=O)C(=O)NCc1ccc(N=[N+]=[N-])cc1` [(R)-5, (R)-N-(4-Azidobenzyl)-2-acetamido-3-methoxypropanamide, reference compound], the PI in series [3] is given as above 64. In addition, the ED50 in series [3] (setting [12]) is 3.9 mg/kg. Also, the TD50 is above 250 mg/kg in series [6] (time in hours in brackets) and 46.2 mg/kg in series [2] (setting [11]). The entries for the “Area Under the Curve, % of Control” value in series [7] (Acute phase) and in series [7] (Inflammatory phase) were 58.67% and 106.22%, respectively. Moreover, the “Area Under the Curve, Drug Tested” value amounted to 131.4 in series [7] (Acute phase) and 694.5 in [7] (Inflammatory phase).
`C#CCOC[C@@H](NC(C)=O)C(=O)NCc1ccc(N=[N+]=[N-])cc1` [(R)-8]: the ED50 amounted to 45 mg/kg in [3] (setting [12]); 12 mg/kg in series [3] (setting [13]); 20 mg/kg in series [1] (read-out: MES, ED50). Besides, the TD50 in series [4] is above 500 mg/kg; in [5], 100 to 300 mg/kg.
Consider `CCOCC(NC(C)=O)C(=O)NCc1ccccc1` (racemic) [(R,S)-10], for which the ED50 in series [1] (setting [15]) worked out at 17 mg/kg.
As for `CC(=O)N[C@H](C(=O)NCc1ccccc1)c1ccccc1` [(S)-6], the ED50 in series [1] (read-out: MES, ED50) was above 300 mg/kg.
For `COC[C@H](NC(C)=O)C(=O)NCc1ccc(N=[N+]=[N-])cc1` [(S)-5, (S)-N-(4-Azidobenzyl)-2-acetamido-3-methoxypropanamide, reference compound], the ED50 in series [3] (setting [12]) was above 30 mg/kg; in [1] (setting [10]) it was 100 to 300 mg/kg; in series [1] (setting [16]), above 25 mg/kg; in series [8] (Mus musculus, ip, read-out: 6Hz, ED50), around 100 mg/kg. Besides, in [6] (time in hours in brackets), the TD50 was above 30 mg/kg. Moreover, the “Tox, TD50” value in series [2] (setting [17]) was above 300 mg/kg.
Consider `C#CCOC[C@@H](NC(C)=O)C(=O)NCc1ccc(N=[N+]=[N-])cc1` [(R)-8, (R)-N-(4-Azidobenzyl)-2-acetamido-3-(prop-2-ynyloxy)propanamide], for which, in series [7] (Acute phase), the “Area Under the Curve, % of Control” value is recorded as 58.28% and the “Area Under the Curve, Drug Tested” value is recorded as 119.9. In series [7] (Inflammatory phase), the “Area Under the Curve, % of Control” value was determined as 78.17% and the “Area Under the Curve, Drug Tested” value amounted to 414.3.
On to `CC(=O)N[C@@H](C)C(=O)NCc1ccccc1` [(S)-4], for which the ED50 in series [1] (read-out: MES, ED50) worked out at 550 mg/kg.
For `COCC#Cc1ccc(CNC(=O)[C@@H](COC)NC(C)=O)cc1` [(R)-6, (R)-2-Acetamido-3-methoxy-N-(4-(3-methoxyprop-1-ynyl)benzyl)propanamide, reference compound], the PI in [3] was above 30; in series [1] (Mice (ip), PI = TD50/ED50), “∼2.8”. The TD50 was below 30 mg/kg in series [6] (time in hours in brackets) and 10 to 30 mg/kg in series [2] (setting [11]). Moreover, the ED50 in [1] (setting [10]) is 3 to 10 mg/kg; in series [1] (setting [16]), 26 mg/kg. Moreover, the “Tox (death)” value in series [2] (Mice (ip), observation printed in the Tox, TD50 column) is given as “Death at 100”.
Regarding `C#CCOC[C@@H](NC(C)=O)C(=O)NCc1ccc(N=C=S)cc1` [(R)-9], the ED50 in series [3] (setting [12]) and in [3] (setting [13]) was above 30 mg/kg throughout. The TD50 in [4] is above 30 mg/kg; in series [5], 68 mg/kg.
`C=CCOCC(NC(C)=O)C(=O)NCc1ccccc1` (racemic) [(R,S)-11]: the ED50 in series [1] (setting [15]) was 30 to 100 mg/kg.
For `CC(=O)NC(C)C(=O)NCc1ccccc1` (racemic) [(R,S)-4], the ED50 in series [1] (read-out: MES, ED50) was 77 mg/kg.
As for `COC[C@@H](NC(C)=O)C(=O)NCc1ccc(OCc2cccc(F)c2)cc1` [(R)-3, (R)-2-Acetamido-N-(4-(3-fluorobenzyloxy)benzyl)-3-methoxypropanamide], the PI is on record as above 36 in [3] and “∼9.3” in series [1] (Mice (ip), PI = TD50/ED50). In series [6] (time in hours in brackets), this compound showed a TD50 above 30 mg/kg. Moreover, the “Tox, TD50” value in series [6] (time in hours in brackets) was > 500 [0.5] mg/kg. For the same compound, the ED50 in [1] (setting [10]) fell in the range of 10 to 30 mg/kg. Further, the “6Hz, ED50 (given as fraction)” value in [8] (Mice (ip), […], dose not given) is 2/4 [0.25].
With `COC[C@@H](NC(C)=O)C(=O)NCc1ccc(C(F)(F)F)cc1` [(R)-10], the ED50 was below 30 mg/kg in series [3] (setting [12]) and 30 to 100 mg/kg in [1] (setting [10]). In addition, the TD50 in series [4] is above 30 mg/kg; in series [5] it was 100 to 300 mg/kg. In series [1] (Mice (ip), PI = TD50/ED50), the PI entry was “∼3.1”.
As to `CCCC(CCC)C(=O)O` [valproate], the “MES, ED50” value in series [3] (time in hours in brackets) is 490 [0.5] mg/kg; in series [1] (setting [17]) it was 270 [0.25] mg/kg. The median effective dose (ED50) was determined as 490 mg/kg in series [3] (read-out: MES, ED50) and 270 mg/kg in series [1] (read-out: MES, ED50). The PI in series [1] (Mice (ip), PI = TD50/ED50) was found to be 1.6; in series [1] (Mice (ip), protective index (TD50/ED50)) it was 1.6; in series [9], 0.6.
Take `C#CCOC[C@H](NC(C)=O)C(=O)NCc1ccc(N=[N+]=[N-])cc1` [(S)-8, (S)-N-(4-Azidobenzyl)-2-acetamido-3-(prop-2-ynyloxy)propanamide]: the results for the ED50 in series [3] (setting [13]) and in [1] (setting [14]) were above 30 mg/kg and 163 mg/kg, respectively. Further, the TD50 in series [6] (setting [18]) was above 30 mg/kg; in [2] (setting [19]), above 300 mg/kg.
As to `O=C1NC(=O)C(c2ccccc2)(c2ccccc2)N1` [phenytoin, reference compound], the “MES, ED50” value in series [3] (time in hours in brackets) was 30 [4] mg/kg. Also, the ED50 in series [3] (read-out: MES, ED50) was found to be 30 mg/kg. The compound further had a TD50 in series [6] (setting [18]) above 3000 mg/kg.
Consider `C#CCOC[C@@H](NC(C)=O)C(=O)NCc1ccccc1` [(R)-7, (R)-N-Benzyl-2-acetamido-3-(prop-2-ynyloxy)propanamide], for which the entries for the “Area Under the Curve, % of Control” value in series [7] (Acute phase) and in [7] (Inflammatory phase) were 48.42% and 54.99%, respectively. The “Area Under the Curve, Drug Tested” value in [7] (Acute phase) worked out at 142.9; in [7] (Inflammatory phase), 468.3.
As for `CCC1(c2ccccc2)C(=O)NC(=O)NC1=O` [Phenobarbital, reference compound], the ED50 came to 9.1 mg/kg in series [3] (setting [12]), 9 mg/kg in [3] (setting [13]), 22 mg/kg in series [1] (setting [10]) and 22 mg/kg in series [1] (setting [14]). For the same compound, the “Tox, TD50” value in series [6] (time in hours in brackets) and in series [6] (setting [18]) was 61 [0.5] mg/kg each time.
Consider `C#CCOC[C@H](NC(C)=O)C(=O)NCc1ccccc1` [(S)-7, (S)-N-Benzyl-2-acetamido-3-(prop-2-ynyloxy)propanamide], for which the ED50 in series [3] (setting [13]) was above 30 mg/kg; in [1] (setting [14]) it was above 300 mg/kg. The results for the TD50 in series [6] (setting [18]) and in series [2] (setting [19]) were above 30 mg/kg and above 300 mg/kg, respectively.
In the case of `COC[C@@H](NC(C)=O)C(=O)NCc1ccc(COc2cccc(F)c2)cc1` [(R)-11], the values for the ED50 in series [3] (setting [12]) and in [1] (setting [10]) were below 30 mg/kg and 3 to 10 mg/kg, respectively. Moreover, in series [6] (time in hours in brackets), the “Tox, TD50” value was > 30 [0.25 to 4.0] mg/kg. Also, the PI entry in series [1] (Mice (ip), PI = TD50/ED50) was “∼2.8”. The TD50 in series [5] was in the range of 10 to 30 mg/kg.
Consider `C#CCOC[C@H](NC(C)=O)C(=O)NCc1ccc(N=C=S)cc1` [(S)-9, (S)-N-(4-Isothiocyanatobenzyl)-2-acetamido-3-(prop-2-ynyloxy)propanamide], for which the ED50 in [1] (read-out: MES, ED50) was above 300 mg/kg. The TD50 in series [2] (setting [19]) was above 300 mg/kg.
